Measurements taken from PMC7564829, “Potent Broad-Spectrum Antibacterial Activity of Amphiphilic Peptides against Multidrug-Resistant Bacteria” (Microorganisms, 2020).

Legend:
MRSA T144 = test: MIC/MBC, broth micro-dilution; format: cell-based, Staphylococcus aureus; details: MRSA T144
Experimental: (§1) Experiments were performed with two biological replicates.

E. coli 1A34 = test: MIC, tigecycline-resistant clinical isolate; format: cell-based; details: E. coli 1A34, anal swab, tigecycline-resistant clinical isolate; broth micro-dilution
Experimental: as §1

E. coli 1C1 = test: MIC, tigecycline-resistant clinical isolate; format: cell-based; details: E. coli 1C1, dust, tigecycline-resistant clinical isolate; broth micro-dilution
Experimental: as §1

E. coli 1F31 = test: MIC, tigecycline-resistant clinical isolate; format: cell-based; details: E. coli 1F31, tigecycline-resistant clinical isolate; broth micro-dilution
Experimental: as §1

E. coli 1N28 = test: MIC, tigecycline-resistant clinical isolate; format: cell-based; details: E. coli 1N28, nasal swab, tigecycline-resistant clinical isolate; broth micro-dilution
Experimental: as §1

E. coli 1N31 = test: MIC, tigecycline-resistant clinical isolate; format: cell-based; details: E. coli 1N31, tigecycline-resistant clinical isolate; broth micro-dilution
Experimental: as §1

E. coli 2A19 = test: MIC, tigecycline-resistant clinical isolate; format: cell-based; details: E. coli 2A19, tigecycline-resistant clinical isolate; broth micro-dilution
Experimental: as §1

pepsin = pepsin 10 mg/mL, 1 h preincubation; residual MIC against E. coli 1F28
Experimental: Thermal, pH and proteolytic stability. WRK-12 was preincubated at different temperatures (from 25 to 121 °C), pH (from 2 to 12) or proteases (pepsin, trypsin and papain, final concentration 10 mg/mL) for 1 h. Samples after pH treatment were readjusted to pH = 7.2 to determine the residual antibacterial activity by MIC tests. Samples after proteases treatment were heated at 80 °C for 30 min, and centrifuged at 13,000× g for 30 min to precipitate proteases, and the residual antibacterial activity of supernatants was tested by MIC analysis.

papain = papain (Carica papaya, UniProt P00784); test: Proteolytic stability (residual antibacterial activity by MIC); format: in vitro ADME; details: papain 10 mg/mL, 1 h preincubation; residual MIC against E. coli 1F28
Chain of papain (P00784 134-345): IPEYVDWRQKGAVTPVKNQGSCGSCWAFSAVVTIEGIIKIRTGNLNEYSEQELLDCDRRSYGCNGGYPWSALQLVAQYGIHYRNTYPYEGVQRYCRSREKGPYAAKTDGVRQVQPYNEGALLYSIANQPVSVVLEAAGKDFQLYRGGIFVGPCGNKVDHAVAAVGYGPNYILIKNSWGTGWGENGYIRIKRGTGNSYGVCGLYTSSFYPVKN
Description: Thermal, pH and proteolytic stability.

Ac-WRLRWKTRWRLK-NH2 [WRK-12]
MIC (MRSA T144; broth micro-dilution CLSI 2018, MHB, 18 h, 37 °C): 2 µg/mL
MBC (MRSA T144; lowest concentration killing 99.9%, plated on MHA): 2 µg/mL
MIC (E. coli 1A34): 2 µg/mL
MIC (E. coli 1C1): 4 µg/mL
MIC (E. coli 1F31): 4 µg/mL
MIC (E. coli 1N28): 8 µg/mL
MIC (E. coli 1N31): 16 µg/mL
MIC (E. coli 2A19): 16 µg/mL
proteolytic stability (pepsin): resistant
proteolytic stability (papain): sensitive
